Data on eight compounds can be found in ChEMBL document CHEMBL3085693, “Discovery of a potent inhibitor of replication protein a protein-protein interactions using a fragment-linking approach” (J Med Chem, 2013).

For assay [1], the target named is T1, Replication protein A 70 kDa DNA-binding subunit (Homo sapiens, UniProt P27694). The assay is described as follows: Binding affinity to RPA70N (1 to 120) site2 (unknown origin) expressed in Escherichia coli BL21-DE3 cells by NMR spectroscopy.
Assay [2] concerns the target T1, Replication protein A 70 kDa DNA-binding subunit. Nature of the assay: Binding affinity to RPA70N (1 to 120) (unknown origin) expressed in Escherichia coli BL21-DE3 cells by NMR spectroscopy.
The target is the same in assay [3]. Nature of the assay: Binding affinity to RPA70N (1 to 120) (unknown origin) expressed in Escherichia coli BL21-DE3 cells by FPA assay.
Assay [4] has the same target. Nature of the assay: Binding affinity to RPA70N (1 to 120) site1 (unknown origin) expressed in Escherichia coli BL21-DE3 cells by NMR spectroscopy.
For assay [5] the target is unchanged. The assay is described as follows: Binding affinity to RPA70NAB (unknown origin) by FPA assay.
Assay [6] shares this target. The assay is described as follows: Displacement of FITC-ss-DNA from RPA70AB domain (unknown origin) by FPA assay.
For assay [7] the target is unchanged. The assay is described as follows: Displacement of FITC-ss-DNA from RPA70NAB domain (unknown origin) by FPA assay.
Assay [8] shares this target. Nature of the assay: Displacement of FITC-ATRIP2 from RPA70NAB domain (unknown origin) by FPA assay.
The target is the same in assay [9]. The assay is described as follows: Displacement of FITC-ATRIP2 from RPA70N (1 to 120) (unknown origin) by FPA assay.

T1 sequence (P27694 whole entry): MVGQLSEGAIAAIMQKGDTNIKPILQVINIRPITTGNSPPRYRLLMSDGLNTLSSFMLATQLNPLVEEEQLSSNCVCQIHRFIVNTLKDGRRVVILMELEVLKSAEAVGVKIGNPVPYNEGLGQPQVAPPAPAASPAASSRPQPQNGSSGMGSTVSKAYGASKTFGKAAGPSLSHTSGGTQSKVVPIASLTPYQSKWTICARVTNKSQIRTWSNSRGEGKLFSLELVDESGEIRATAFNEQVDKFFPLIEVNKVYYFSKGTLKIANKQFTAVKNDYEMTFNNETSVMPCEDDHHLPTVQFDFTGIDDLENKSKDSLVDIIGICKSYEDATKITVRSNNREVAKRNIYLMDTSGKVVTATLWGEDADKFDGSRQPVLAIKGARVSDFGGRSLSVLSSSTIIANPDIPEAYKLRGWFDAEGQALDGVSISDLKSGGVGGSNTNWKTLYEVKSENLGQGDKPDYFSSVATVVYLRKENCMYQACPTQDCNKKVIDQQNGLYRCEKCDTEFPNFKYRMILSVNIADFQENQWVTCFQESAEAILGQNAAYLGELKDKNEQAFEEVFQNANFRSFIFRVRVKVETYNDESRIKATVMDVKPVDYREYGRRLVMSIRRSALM

As a reminder, the Kd is the equilibrium constant for the complex coming apart. With `O=C(O)c1cc(-c2ccc(F)cc2)n[nH]1`, in assay [1], the Kd came out at 1120 µM.

In the case of `O=C(O)c1cc(-c2ccc(CNC(=O)c3ccc(-c4ccc(C(=O)O)o4)cc3Cl)cc2)n(-c2ccc(Cl)c(Cl)c2)n1`, binding in assay [2] was characterised by a dissociation constant (Kd) of 2.9 µM.

For the compound `Cc1cccc(-n2nc(C(=O)O)cc2-c2ccc(OCc3ccc(-c4ccc(C(=O)O)o4)cc3)cc2)c1`, the Kd was 26 µM in [2] and 20 µM in assay [3].

As to `CCc1c(O)[nH]c2nc3ccccc3n2c1=O`, the Kd in [1] worked out at 1620 µM.

With `O=C(O)c1ccc(-c2ccc(F)c(Cl)c2)o1`, the Kd amounted to 1400 µM in assay [1] and 710 µM in [4].

Take `Cc1cccc(-n2nc(C(=O)O)cc2-c2ccccc2)c1`: the Kd in [1] is > 2000 µM; in [4], 580 µM.

Consider `Cc1cccc2c(-c3ccccc3)c(C(=O)O)[nH]c12`, for which binding in assay [4] was put at a Kd of 640 µM.

`O=C(O)c1cc(-c2ccc(CNC(=S)c3ccc(-c4ccc(C(=O)O)o4)cc3Cl)cc2)n(-c2ccc(Cl)c(Cl)c2)n1`: the Kd in assay [5] is 0.29 µM; in [6] it was 5.2 µM; in [7], 2.3 µM; in assay [8] it was 0.323 µM; in assay [9] it was 0.19 µM; in assay [3], 0.19 µM.
